The record followed here is ChEMBL document CHEMBL5715954, “Silencing c-Myc translation as a therapeutic strategy through targeting PI3Kδ and CK1ε in hematological malignancies” (Blood, 2017).

Structures are written as SMILES.

Set-up in all cases: scale not given: the % may be the effect or the level left
The target of assay [1] is Calcium/calmodulin-dependent protein kinase type II subunit alpha (Homo sapiens) (UniProt Q9UQM7). The assay can be described thus: Inhibition of human CAMK2a assessed as enzyme activity at 1 uM using KKALRRQETVDAL as substrate preincubated for 20 mins followed by [gamma-33P]-ATP addition and measured after 120 mins by radiometric Hot-SpotSM Kinase assay relative to control.

The target of assay [2] is T1, Ephrin type-B receptor 4 (Homo sapiens) (UniProt P54760).
T1 sequence (whole entry): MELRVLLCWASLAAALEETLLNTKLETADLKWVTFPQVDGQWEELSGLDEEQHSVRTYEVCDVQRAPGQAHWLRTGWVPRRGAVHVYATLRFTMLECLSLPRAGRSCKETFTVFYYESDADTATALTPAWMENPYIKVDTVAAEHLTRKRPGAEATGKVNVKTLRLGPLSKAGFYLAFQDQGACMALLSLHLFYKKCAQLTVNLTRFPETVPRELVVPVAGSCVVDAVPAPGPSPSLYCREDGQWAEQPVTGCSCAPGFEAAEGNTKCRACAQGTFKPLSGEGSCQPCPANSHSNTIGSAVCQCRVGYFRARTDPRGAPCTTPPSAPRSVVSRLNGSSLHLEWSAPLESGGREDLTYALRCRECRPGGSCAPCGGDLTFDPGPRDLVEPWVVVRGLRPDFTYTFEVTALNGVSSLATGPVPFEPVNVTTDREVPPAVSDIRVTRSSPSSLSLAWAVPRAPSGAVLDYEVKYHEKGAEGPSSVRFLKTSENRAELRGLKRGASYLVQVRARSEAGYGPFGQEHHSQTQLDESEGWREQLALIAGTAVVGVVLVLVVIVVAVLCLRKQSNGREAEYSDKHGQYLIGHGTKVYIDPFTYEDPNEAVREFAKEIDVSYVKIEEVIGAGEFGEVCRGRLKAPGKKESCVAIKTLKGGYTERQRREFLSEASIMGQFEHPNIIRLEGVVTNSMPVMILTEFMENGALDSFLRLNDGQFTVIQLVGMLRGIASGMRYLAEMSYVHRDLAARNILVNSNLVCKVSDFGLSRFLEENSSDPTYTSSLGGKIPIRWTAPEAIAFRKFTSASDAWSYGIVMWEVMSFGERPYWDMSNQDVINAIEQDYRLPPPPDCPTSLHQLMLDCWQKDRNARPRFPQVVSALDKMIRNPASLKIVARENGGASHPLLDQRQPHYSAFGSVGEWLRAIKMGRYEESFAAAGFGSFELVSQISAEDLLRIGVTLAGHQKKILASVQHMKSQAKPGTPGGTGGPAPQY
The experiment in a line: Inhibition of human EPHB4 assessed as enzyme activity at 1 uM using poly[Glu:Tyr] (4:1) as substrate preincubated for 20 mins followed by [gamma-33P]-ATP addition and measured after 120 mins by radiometric Hot-SpotSM Kinase assay relative to control.

The target of assay [3] is Cyclin-dependent kinase 14/Cyclin-Y (Homo sapiens) (UniProt O94921+Q8ND76). The experiment in a line: Inhibition of human CDK14/cyclin Y assessed as enzyme activity at 1 uM using RB Protein as substrate preincubated for 20 mins followed by [gamma-33P]-ATP addition and measured after 120 mins by radiometric Hot-SpotSM Kinase assay relative to control. In kind it is protein-complex assay.

The target of assay [4] is T2, Serine/threonine-protein kinase DCLK2 (Homo sapiens) (UniProt Q8N568).
T2 sequence (whole entry): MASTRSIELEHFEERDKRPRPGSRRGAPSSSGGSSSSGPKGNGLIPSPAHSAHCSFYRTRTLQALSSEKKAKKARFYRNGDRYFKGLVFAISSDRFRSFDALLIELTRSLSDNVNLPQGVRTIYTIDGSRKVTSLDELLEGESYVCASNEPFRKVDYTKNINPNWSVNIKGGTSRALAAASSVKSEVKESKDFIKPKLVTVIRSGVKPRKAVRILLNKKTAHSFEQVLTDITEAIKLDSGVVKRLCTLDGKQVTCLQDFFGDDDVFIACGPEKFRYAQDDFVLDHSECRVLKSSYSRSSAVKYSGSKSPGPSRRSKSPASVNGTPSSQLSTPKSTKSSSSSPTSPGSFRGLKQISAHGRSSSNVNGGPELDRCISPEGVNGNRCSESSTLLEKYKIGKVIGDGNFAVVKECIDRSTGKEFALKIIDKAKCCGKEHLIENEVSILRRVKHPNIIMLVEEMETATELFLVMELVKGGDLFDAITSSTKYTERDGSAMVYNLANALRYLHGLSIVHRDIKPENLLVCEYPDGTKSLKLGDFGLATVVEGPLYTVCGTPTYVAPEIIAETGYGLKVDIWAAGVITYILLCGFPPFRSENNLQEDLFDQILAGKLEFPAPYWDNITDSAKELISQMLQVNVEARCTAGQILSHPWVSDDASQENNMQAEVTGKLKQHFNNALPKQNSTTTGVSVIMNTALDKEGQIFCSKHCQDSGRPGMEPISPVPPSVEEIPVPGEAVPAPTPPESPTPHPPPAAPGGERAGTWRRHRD
The experiment in a line: Inhibition of human DCAMKL2 assessed as enzyme activity at 1 uM using KKLNRTLSFAEPG as substrate preincubated for 20 mins followed by [gamma-33P]-ATP addition and measured after 120 mins by radiometric Hot-SpotSM Kinase assay relative to control.

The target in assay [5] is T3, Serine/threonine-protein kinase Sgk3 (Homo sapiens) (UniProt Q96BR1).
T3 sequence (whole entry): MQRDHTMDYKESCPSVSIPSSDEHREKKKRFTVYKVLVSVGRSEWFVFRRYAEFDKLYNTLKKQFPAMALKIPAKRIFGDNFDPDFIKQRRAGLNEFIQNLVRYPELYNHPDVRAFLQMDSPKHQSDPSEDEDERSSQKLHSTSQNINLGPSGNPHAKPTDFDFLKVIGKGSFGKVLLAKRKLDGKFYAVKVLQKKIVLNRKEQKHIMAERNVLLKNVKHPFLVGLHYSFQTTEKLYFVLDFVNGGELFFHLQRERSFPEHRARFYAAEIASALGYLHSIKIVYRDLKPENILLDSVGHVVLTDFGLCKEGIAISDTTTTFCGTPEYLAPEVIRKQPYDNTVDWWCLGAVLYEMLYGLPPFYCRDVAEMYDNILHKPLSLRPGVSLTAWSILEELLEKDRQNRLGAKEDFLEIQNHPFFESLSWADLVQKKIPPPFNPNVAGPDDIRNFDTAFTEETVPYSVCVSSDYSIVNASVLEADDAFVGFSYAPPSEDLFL
The experiment in a line: Inhibition of human SGK3 assessed as enzyme activity at 1 uM using GRPRTSSFAEG as substrate preincubated for 20 mins followed by [gamma-33P]-ATP addition and measured after 120 mins by radiometric Hot-SpotSM Kinase assay relative to control.

Calcium/calmodulin-dependent protein kinase type II subunit alpha (Homo sapiens), sequence (Q9UQM7 whole entry): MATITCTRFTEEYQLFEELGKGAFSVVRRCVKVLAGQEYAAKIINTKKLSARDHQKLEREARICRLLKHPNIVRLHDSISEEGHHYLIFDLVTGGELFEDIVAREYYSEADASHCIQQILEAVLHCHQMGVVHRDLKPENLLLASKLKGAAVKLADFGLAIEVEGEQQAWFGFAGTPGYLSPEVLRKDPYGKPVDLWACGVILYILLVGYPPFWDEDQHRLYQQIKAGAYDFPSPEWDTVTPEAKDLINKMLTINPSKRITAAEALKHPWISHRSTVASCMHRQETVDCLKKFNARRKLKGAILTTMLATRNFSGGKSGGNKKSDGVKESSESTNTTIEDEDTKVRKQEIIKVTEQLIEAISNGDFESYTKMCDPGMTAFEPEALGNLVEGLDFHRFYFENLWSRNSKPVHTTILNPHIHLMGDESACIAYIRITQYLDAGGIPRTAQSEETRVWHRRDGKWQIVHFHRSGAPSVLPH

Regarding `C[C@H](Nc1ncnc2nc[nH]c12)c1cc2cccc(Cl)c2c(=O)n1-c1ccccc1`, the Activity in assay [1] was determined as 95.4%; in assay [2] it was 91.5%; in assay [3], 85.3%; in assay [4] it was 94.1%; in assay [5], 97.3%.
In the same order, the values of `CC[C@H](Nc1ncnc2[nH]cnc12)c1nc2cccc(F)c2c(=O)n1-c1ccccc1` are 101%, 92.2%, 77.4%, 94.7% and 97.2%.
On to `CC(C)Oc1ccc(-c2nn([C@@H](C)c3oc4ccc(F)cc4c(=O)c3-c3cccc(F)c3)c3ncnc(N)c23)cc1F` [UMBRALISIB], for which the Activity is 100% in assay [1]; 89.7% in assay [2]; 79.3% in assay [3]; 94.7% in assay [4]; 98.7% in assay [5].
